Source: BindingDB's records for doi:10.1002/chir.1172 (The Royal Danish School of Pharmacy, 2001)
“And” between values parts separate entries of the source, which are not always exact repeats. Equal values may be shown once.

What was measured:
[1] = target: Glutamate receptor 3 (Rattus norvegicus, UniProt P19492)
[2] = target: Glutamate receptor ionotropic, NMDA 1 (Rattus norvegicus, UniProt P35439)
[3] = target: Glutamate receptor ionotropic, kainate 1 (Rattus norvegicus, UniProt P22756)
Sequence of Glutamate receptor ionotropic, kainate 1 (P22756 whole entry): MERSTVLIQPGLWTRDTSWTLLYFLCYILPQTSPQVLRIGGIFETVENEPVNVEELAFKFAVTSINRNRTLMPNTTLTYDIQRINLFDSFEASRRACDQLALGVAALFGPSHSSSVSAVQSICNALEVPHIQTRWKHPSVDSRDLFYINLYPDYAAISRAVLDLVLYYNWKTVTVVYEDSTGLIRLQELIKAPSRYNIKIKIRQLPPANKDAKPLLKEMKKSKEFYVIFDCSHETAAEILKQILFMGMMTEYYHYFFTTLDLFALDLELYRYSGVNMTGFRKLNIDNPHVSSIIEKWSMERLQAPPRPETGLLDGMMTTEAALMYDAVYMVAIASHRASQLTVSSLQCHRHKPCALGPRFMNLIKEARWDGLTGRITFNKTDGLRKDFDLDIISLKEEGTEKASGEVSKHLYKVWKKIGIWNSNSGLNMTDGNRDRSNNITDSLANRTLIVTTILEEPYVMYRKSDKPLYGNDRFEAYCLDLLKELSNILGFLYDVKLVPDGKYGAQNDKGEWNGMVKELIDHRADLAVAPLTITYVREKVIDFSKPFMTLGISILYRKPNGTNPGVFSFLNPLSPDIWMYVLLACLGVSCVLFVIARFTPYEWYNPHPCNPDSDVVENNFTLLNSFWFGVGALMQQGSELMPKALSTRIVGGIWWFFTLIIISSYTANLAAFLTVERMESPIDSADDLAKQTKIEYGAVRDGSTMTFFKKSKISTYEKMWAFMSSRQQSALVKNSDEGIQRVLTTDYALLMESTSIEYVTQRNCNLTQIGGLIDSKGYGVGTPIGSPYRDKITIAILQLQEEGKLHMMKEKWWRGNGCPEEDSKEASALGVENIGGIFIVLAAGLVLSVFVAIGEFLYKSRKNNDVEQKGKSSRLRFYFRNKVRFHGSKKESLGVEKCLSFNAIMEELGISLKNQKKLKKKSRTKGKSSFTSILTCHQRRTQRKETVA

Sequence of Glutamate receptor 3 (P19492 whole entry): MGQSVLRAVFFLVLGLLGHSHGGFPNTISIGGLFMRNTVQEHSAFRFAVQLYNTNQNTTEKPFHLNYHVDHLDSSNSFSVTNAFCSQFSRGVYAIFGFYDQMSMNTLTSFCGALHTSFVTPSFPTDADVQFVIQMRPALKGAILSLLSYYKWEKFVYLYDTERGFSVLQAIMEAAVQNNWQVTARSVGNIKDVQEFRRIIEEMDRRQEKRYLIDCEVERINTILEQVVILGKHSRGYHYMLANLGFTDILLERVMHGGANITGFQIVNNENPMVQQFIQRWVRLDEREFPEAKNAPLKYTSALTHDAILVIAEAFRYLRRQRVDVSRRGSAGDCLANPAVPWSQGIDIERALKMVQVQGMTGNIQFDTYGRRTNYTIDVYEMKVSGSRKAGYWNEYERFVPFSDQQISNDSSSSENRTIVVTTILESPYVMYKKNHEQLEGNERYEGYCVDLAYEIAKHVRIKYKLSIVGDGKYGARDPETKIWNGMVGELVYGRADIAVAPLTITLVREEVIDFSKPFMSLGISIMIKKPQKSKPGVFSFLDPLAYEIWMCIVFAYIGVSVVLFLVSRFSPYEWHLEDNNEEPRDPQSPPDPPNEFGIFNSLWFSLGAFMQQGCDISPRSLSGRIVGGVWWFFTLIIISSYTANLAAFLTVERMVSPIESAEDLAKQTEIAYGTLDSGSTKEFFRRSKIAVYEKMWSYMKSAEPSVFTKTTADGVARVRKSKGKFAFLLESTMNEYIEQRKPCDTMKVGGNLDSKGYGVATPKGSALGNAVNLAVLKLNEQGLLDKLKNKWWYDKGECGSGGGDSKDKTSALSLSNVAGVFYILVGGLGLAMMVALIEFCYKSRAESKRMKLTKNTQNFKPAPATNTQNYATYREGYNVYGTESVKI

Structure (SMILES)	Ki [1]	Ki [2]	Ki [3]
Cc1onc(C(=O)O)c1C[C@@H](N)C(=O)O [(R)-ACPA]	–	> 10 µM	> 10 µM
Cc1onc(C(=O)O)c1CC(N)C(=O)O [(S)-2-AMINO-3-(3-CARBOXY-5-METHYLISOXAZOL-4-YL)PROPIONIC ACID]	0.02 µM	> 10 µM	6.3 µM
N[C@@H](Cc1conc1C(=O)O)C(=O)O [Demethyl-ACPA]	0.039 µM and 0.1 µM	> 10 µM	–
C[C@H](NC(=O)CNC(=O)[C@@H](NC(=O)[C@H](Cc1ccccc1)NC(=O)CNC(=O)CNC(=O)[C@@H](N)Cc1ccccc1)[C@@H](C)O)C(=O)N[C@@H](CCCN=C(N)N)C(=O)N[C@@H](CCCCN)C(=O)N[C@@H](CO)C(=O)N[C@@H](C)C(=O)N[C@@H](CCCN=C(N)N)C(=O)N[C@@H](CCCCN)C(N)=O [OFQ/N (1-11),[Tyr10]]	0.27 µM	> 10 µM	> 10 µM

The next lines start with the values.

Ki [1]	Ki [2]	Ki [3]	Structure (SMILES)
0.025 µM	> 10 µM	3.6 µM	Cc1onc(C(=O)O)c1C[C@H](N)C(=O)O
9.4 µM	4.5 µM	> 10 µM	N[C@@H](Cc1conc1C(=O)O)C(=O)O [(R)-Demethyl-ACPA]
